Laboratory results published in patent publication US9320723B2, “Methods of treating thyroid eye disease” (University of Rochester, priority 2010, dated 2016).
Read-outs that look alike come from different tables or passages of the source.

Legend:
[1] = tested on: human orbital fibroblasts; experiment: Quantitation of secreted, pericellular and intracellular HA by ELISA, TGF-β1 treatment; format: cell-based; conditions: for cell number after treatment: cells counted in the FIG. 10 experiment; for inhibition at 10 µM: Homo sapiens, Fibroblast, 2 ng/ml TGF-β1, 24 hours
Description: Confluent monolayers of orbital fibroblasts were serum starved in 0.5% FBS RPMI-1640 medium for three days and pretreated with different concentrations of Pio or Rosi for 1 hour and then treated with or without 2 ng/ml TGF-β1 for 24 hours. After treatments, an aliquot of culture medium (secreted HA) was removed and centrifuged at 8,000×g at 4° C. for 5 minutes and the supernatant was saved for later analysis. The cells were washed twice with PBS and treated with 0.25% trypsin-EDTA solution (GIBCO, Invitrogen) at 37° C. for 5 minutes, the reaction was stopped by addition of culture medium and cell number was determined using a hemocytometer. The cells were then centrifuged and the supernatant was collected and incubated at 100° C. for 10 minutes to inactivate trypsin activity. This supernatant was saved for pericellular HA detection. The cell pellet was washed with PBS once and digested with 120 μg/ml proteinase K in 0.1% SDS/0.1 M Tris-HCl (pH 7.6) at 37° C. for 1 hour, and proteinase K was inactivated by incubation at 100° C. for 10 min. The cell lysate was centrifuged and supernatant analyzed for intracellular HA.
The amount of HA in each extract (secreted HA, pericellular HA and intracellular HA) was measured by ELISA based on the specific interaction of HA with HA binding protein (HABP). The HA detection kit was purchased from R&D system (Minneapolis, Minn.). Briefly, diluted samples were incubated in HABP-coated microwells, allowing HA present in samples to react with the immobilized HABP. After extensive washing, biotinylated HABP was added to the microwells to form complexes with bound HA. Following another round of washing, streptavidin conjugated horseradish peroxidase was added. After a brief incubation period and washing, chromogenic substrate was added and HA levels were determined using a Varioskan Flash plate reader (Thermo Fisher Scientific, Milford, Mass.). A fraction of the samples were pretreated with Streptomyces hyaluronidase (2 U/ml at 37° C. for 2 hour) before subjected to the ELISA assay as a negative control. Furthermore, an additional 50 ng/ml (final concentration) of free soluble HA was added to a fraction of the cell lysate samples to confirm that there are no inhibitory factors present and that the assays show the expected additivity when a known amount of exogenous HA is included.

[2] = tested on: human orbital fibroblasts; experiment: Cell viability assay (XTT); format: cell-based; conditions: 24 hours, with or without TGF-β1
Description: Cell viability was assayed using the colorimetric XTT (2,3-bis-(2-methoxy-4-nitro-5-sulfophenyl)-2H-tetrazolium-5-carboxanilide) assay kit (Roche, Germany). Briefly, orbital fibroblasts were seeded in a 96-well plate and cultured with various treatments. Twenty hours after treatment, 50 μl of XTT labeling mixture was added and cells were incubated at 37° C. for 4 hours. The amount of cleaved XTT product generated by metabolically active cells was assayed by measuring absorbance using an ELISA plate reader at 480 nm with a reference wavelength at 650 nm. Cell viability results were also confirmed by Trypan blue staining.

[3] = tested on: primary orbital fibroblasts; experiment: 15d-PGJ2 on TGF-β1 induced HA and HAS mRNA; format: cell-based, human; conditions: 15d-PGJ2 0.5, 1.0 or 2.0 μM
Description: Primary orbital fibroblasts were isolated from Graves' disease patients undergoing orbital decompression surgery. The cells were grown in RPMI 1640 media containing 10% FBS, and incubated for 24 hours either with or without 2 ng/ml TGF-β1, and 0.5 μM, 1.0 μM, or 2.0 μM 15d-PGJ2. The amount of HA in the cell culture supernatant and pericellular extraction was measured by ELISA as in the preceding Examples. […] While TGF-β normally induces both HAST and HAS2 mRNA expression, TGF-β induced HA secretion was inhibited by 15d-PGJ2 (FIG. 18).

[4] = tested on: human orbital fibroblasts; experiment: qRT-PCR of HAS mRNA after TGF-β1 with or without Pio or Rosi; format: cell-based; conditions: 10 μM, 6 hours
From the text: RNA was isolated from orbital fibroblast strains using the RNeasy Mini kit according to the manufacturer's protocol (Qiagen, Valencia, Calif.) and reverse transcripted to cDNA using iScript cDNA synthesis kit (Bio-Rad, Hercules, Calif.). Primers for human HAS1, 2, 3 and 7S as well as qRT-PCR method to detect relative abundance of mRNA are identified supra. Primers for human PPARγ1 (NM138711) and PPARγ 2 (NM015869) mRNA were 5′-AAAGAAGCCGA-CACTAAACC-3′ (SEQ ID NO:3) (sense), 5′-CTTCCATTACGG-AGAGATCC-3′ (SEQ ID NO:4) (antisense) and, 5′-GCGATTC-CTTCACTGATAC-3′ (SEQ ID NO:5) (sense), 5′-CTTCCATT-ACGGAGAGATCC-3′ (SEQ ID NO:6) (antisense), respectively.

[5] = tested on: human orbital fibroblasts; experiment: HA ELISA of culture medium of orbital fibroblasts treated with prostaglandins or drugs; format: cell-based; conditions: for HA levels after selective DP agonist: compared to untreated fibroblasts; for basal HA levels: 100 nM antagonist alone, compared with untreated; for PGD2- and PGJ2-induced HA production: 100 nM antagonist pretreatment 1 hour, PGD2 5 μM or PGJ2 2 μM
From the text: Orbital fibroblasts: Primary orbital fibroblasts were isolated from TED patients undergoing orbital decompression surgery. The protocols for orbital biopsy and blood sample, described below, were approved by the Internal Review Board and informed, written consent was obtained from all patients. […] Fibroblasts were characterized by their adherent morphology, expression of vimentin and types I and III collagen and absence of CD45, factor VIII or cytokeratin. Fibroblasts were used at the earliest passage possible (between passages 4 to 10). Human T cells: Lymphocytes were isolated from 60 ml of peripheral blood obtained during orbital decompression surgery. Whole blood was separated over a Ficoll-Paque Plus Gradient (Amersham Biosciences, Piscataway, N.J.) to obtain peripheral blood mononuclear cells. T cells were enriched using CD3/CD28 T cell Expander beads (Invitogen). […] After that, 50 U/ml of recombinant interleukin-2 (rIL-2) was added to the culture and incubated for another 2-3 days. On day 5, cells were diluted to a concentration of 0.5×10^6 cells/ml in medium containing 50 U/ml rIL-2 and incubated for an additional 3-7 days. Cellular purity was assessed using an anti-CD3-PE antibody (BD Biosciences, San Jose, Calif.) and analyzed on a FACSCalibur flow cytometer (BD Biosciences).
Aliquots of culture medium were removed at indicated time points, centrifuged (5 min, 8,000×g at 4° C.) and HA levels quantified by enzyme-linked immunosorbent assay (ELISA) according to the manufacturer's protocol (R&D Systems). Briefly, samples were incubated in HA-binding protein (HABP)-coated microwells, allowing HA in samples to react with the immobilized HABP. After the removal of unbound molecules by washing, biotinylated-HABP was added to the microwells. Following a second wash, streptavidin-conjugated to horseradish peroxidase was added. After the last wash, the chromogenic substrate was added and HA levels were determined using a Varioskan Flash plate reader (Thermo Fisher Scientific, Milford, Mass.).

[6] = tested on: human orbital fibroblasts; experiment: qRT-PCR of HAS mRNA after PGD2 or BW245C; format: cell-based; conditions: BW245C 10 μM
Description: RNA was isolated from orbital fibroblasts or T cells using an RNeasy Mini kit (Qiagen). RNA was reverse transcribed to cDNA using iScript cDNA synthesis kit (Bio-Rad) and diluted 5-fold in RNase-free H2O. Forward and reverse primers for each gene are shown in Table I. RT-PCR: The PCR reaction was performed using Qiagen Fast Cycling PCR kit for 30 cycles in a Bio-Rad thermal cycler. The PCR product was visualized on a 5% acrylamide gel stained with ethidium bromide. Amplifications without reverse transcriptase were carried out as negative controls. qRT-PCR: qRT-PCR was performed in a Bio-Rad iCycler containing B-R SYBR Green SuperMix for IQ (Quanta Biosciences, Gaithersburg, Md.). Efficiency of the amplification was determined to be >90%.
Amplification of 7S ribosomal RNA was carried out for each cDNA (in triplicate) for normalization. Threshold cycle number (Ct) of amplification in each sample was determined by Bio-Rad software and the relative mRNA abundance was calculated as the Ct for amplification of a gene-specific cDNA minus average Ct for 7S, expressed as a power of 2; i.e., 2^ΔCt.

orbital fibroblasts = experiment: Measurement of intracellular cAMP (TR-FRET immunoassay); format: cell-based, human; conditions: PGD2 5 μM, BW245C 10 μM, up to 60 minutes
Description: cAMP levels were quantified using a time-resolved fluorescence resonance energy transfer (TR-FRET) immunoassay from Perkin Elmer (Waltham, Mass.) according to the manufacturer's protocol. Briefly, orbital fibroblasts were detached with a non-enzymatic cell dissociation solution (Versene, Invitrogen) and re-suspended in Stimulation Buffer (pH 7.4; 1×HBSS buffer containing 5 mmol/L HEPES buffer and 0.01%-0.1% BSA) containing 0.5 mM IBMX and labeled with the Alexa Fluor® 647-labeled anti-cAMP antibody. Finally, the cells were incubated with drugs at the indicated times. Following addition of the detection buffer, the amount of cAMP signal was measured.

[7] = tested on: human orbital fibroblasts; conditions: previously reported (Feldon et al. 2006); cited from earlier work
HMC-1 cells = experiment: Measurement of PGD2 produced by mast cells (PGD2-MOX EIA); format: cell-based, human; conditions: 10 μM A23187, 30 minutes, compared to untreated
Description: HMC-1 cells (1×10^6/well) were seeded into 6-well plates and cultured in IMDM medium with 5% FBS in the absence or presence of HQL-79 (H-PGDS inhibitor, 100 μM) at 37° C. for 60 minutes. The cells were then washed and resuspended in RPMI 1640 medium with 0.5% FBS. After 2 hours incubation, the cells were stimulated with 10 μM calcium ionophore A23187 for 30 minutes. The culture media were collected and PGD2 in the supernatants was quantified by PGD2-MOX EIA kits (Cayman Chemical).

CN(CCOc1ccc(CC2SC(=O)NC2=O)cc1)c1ccccn1 (stereo not drawn) [Rosi, rosiglitazone]
cell number after treatment [1]: No significant changes in cell number
cell viability (XTT) [2]: no significant difference in cell viability among treatment conditions

CCCCC/C=C/C=C1/C(=O)C=C[C@@H]1C/C=C\CCCC(=O)O [15d-PGJ2, 15-deoxy-Δ12,14-Prostaglandin J2]
TGF-β induced HAS2 mRNA expression ([3]; 2 ng/ml TGF-β1): inhibited TGF-β induced HAS2 mRNA expression
TGF-β induced HAST mRNA expression ([3]; 2 ng/ml TGF-β1): enhanced TGF-β induced HAST mRNA expression
TGF-β induced HA secretion ([3]; 2 ng/ml TGF-β1, 24 hours): inhibited

CCc1ccc(CCOc2ccc(CC3SC(=O)NC3=O)cc2)nc1 (stereo not drawn) [Pio, pioglitazone]
inhibition at 10 µM ([1]; read-out: inhibition of TGF-β1 mediated pericellular accumulation of HA): 40 ± 2.2%
inhibition at 10 µM ([1]; read-out: inhibition of TGF-β1 mediated secretion of HA): 52 ± 2.2%
cell number after treatment [1]: No significant changes in cell number
inhibition of TGF-β1 mediated HAS1 mRNA induction [4]: about 50%
inhibition of TGF-β1 mediated HAS2 mRNA induction [4]: about 50%
cell viability (XTT) [2]: no significant difference in cell viability among treatment conditions

CCCCCC(=O)CCC1C(=O)CC(O)C1C/C=C\CCCC(=O)O (stereo not drawn) [DK-PGD2, 13,14-dihydro-15-keto-PGD2]
HA levels after selective DP agonist [5]: did not significantly increase HA levels

O=C(O)CCCCCCC1C(=O)NC(=O)N1CCC(O)C1CCCCC1 (stereo not drawn) [BW245C]
HA levels after selective DP agonist [5]: dose-dependently increased HA levels
HAS3 mRNA increase ([6]; 6 hours): 4.8±0.06
HAS1 mRNA fold increase ([6]; two hours, compared to vehicle): 329±128 fold
HAS2 mRNA fold increase ([6]; two hours, compared to vehicle): 17±0.14 fold
intracellular cAMP production (orbital fibroblasts): significantly increased intracellular cAMP production within 15 to 30 minutes

O=C(Nc1ccccc1)c1cc([N+](=O)[O-])ccc1Cl [GW9662]
effect of GW9662 on inhibition of TGF-β1 induced HA synthesis by Pio or Rosi ([1]; 1 μM GW9662 pretreatment 1 hour, 10 μM Pio or Rosi, 24 hours): did not significantly reduce the ability of either Pio or Rosi to inhibit TGF-β1 induced HA synthesis
PPARγ ligand-driven adipogenesis [7]: completely inhibited

CNc1ccc2oc(C[C@H]3O[C@@]4(CC[C@H]3C)O[C@H]([C@H](C)C(=O)c3ccc[nH]3)[C@H](C)C[C@H]4C)nc2c1C(=O)O [A23187]
PGD2 production on activation (HMC-1 cells): significantly increased PGD2 production

O=C(O)CCn1c2c(c3ccccc31)C[C@H](NS(=O)(=O)c1ccc(F)cc1)CC2 [Ramatroban]
basal HA levels [5]: neither MK-0524 (MK) nor Ramatroban (RAM) influenced basal HA levels
PGD2- and PGJ2-induced HA production ([5]; 18 hours): unable to prevent the induction of HA by PGD2 or PGJ2

CS(=O)(=O)c1cc(F)cc2c3c(n(Cc4ccc(Cl)cc4)c12)[C@@H](CC(=O)O)CC3 [MK-0524]
basal HA levels [5]: neither MK-0524 (MK) nor Ramatroban (RAM) influenced basal HA levels
PGD2- and PGJ2-induced HA production ([5]; 18 hours): completely blocked the ability of both PGD2 and PGJ2 to induce HA production

CCCCC[C@H](O)/C=C/[C@H]1C(=O)C=C[C@@H]1C/C=C\CCCC(=O)O [PGJ2]
concentration yielding the largest induction of HA ([5]; 18 hours, strains OF1 and OF2): 2 µM
HA synthesis (HA ELISA) ([5]; increasing concentrations, 18 hours, strains OF1 and OF2): significantly increased HA synthesis by both fibroblast strains in a dose-dependant manner
adipogenesis in human orbital fibroblasts [7]: induce adipogenesis
